In experiment [1] the test system is Escherichia coli D21f2tolC. Description: microbe, parasite or virus in culture. As to conditions: 16 h, read-out: MIC E. coli D21f2tolC, Mueller-Hinton II agar, 16 h at 37° C.
The test system of experiment [2] is Staphylococcus aureus ATCC 12600. Description: Inhibition of bacterial growth in culture, spiral gradient endpoint assay (MIC). As to conditions: for MIC: Staphylococcus aureus, ATCC12600, 16 h, read-out: MIC S. aureus 12600, Mueller-Hinton II agar, 16 h at 37° C.
Experiment [3] concerns Enterococcus faecalis ATCC 19433. The experiment is described as above. The experiment is classed as cell-based. As to conditions: for MIC: Enterococcus faecalis, ATCC 19433 /, 16 h, read-out: MIC E. faecalis, Mueller-Hinton II agar, 16 h at 37° C. An excerpt:
J. Microbiol. Meths. […] Int. J. Exp. Clin. Chemother. […] Adv.

Experiment [4] concerns Escherichia coli D21f2tolC. As to conditions: Mueller-Hinton II agar, 16 h at 37° C.
The mark [5] stands for this setting: Mueller-Hinton II agar, 16 h at 37° C.

The text below walks through data of patent publication US10450292B2, “Inhibitors of bacterial RNA polymerase: arylpropanoyl, arylpropenoyl, and arylcyclopropanecarboxyl phloroglucinols” (Rutgers, The State University of New Jersey, priority 2015, dated 2019).

Structures are written as SMILES. ≈ marks a conversion by molar mass, not a printed value.

Turning to `CC1=C(O)C(C)(C)C(=O)C(C(=O)C2CC2c2ccc(Oc3ccc(F)cc3)cc2C(F)(F)F)=C1O` (stereo not drawn) [Example 85, 2-(2-(4-(4-fluorophenoxy)-2-(trifluoromethyl)phenyl)cyclopropanecarbonyl)-3,5-dihydroxy-4,6,6-trimethylcyclohexa-2,4-dienone], the figures for the MIC in experiment [1], in experiment [2] and in experiment [3] were 4 µg/mL (≈ 8.16 µM), 12 µg/mL (≈ 24.5 µM) and greater than 40 µg/mL, respectively.

In the case of `CCCC1=C(O)C(CCC)(CCC)C(=O)C(C(=O)C2CC2c2ccc(C(F)(F)F)cc2C(F)(F)F)=C1O` (stereo not drawn) [Example 86, 2-(2-(2,4-bis(trifluoromethyl)phenyl)cyclopropanecarbonyl)-3,5-dihydroxy-4,6,6-tripropylcyclohexa-2,4-dienone], the results for the MIC in experiment [1], in experiment [2] and in experiment [3] were 2.2 µg/mL (≈ 4.13 µM), 0.65 µg/mL (≈ 1.22 µM) and 1.7 µg/mL (≈ 3.19 µM), respectively.

Take `CCC1=C(O)C(CC)(CC)C(=O)C(C(=O)C2CC2c2ccc(C(F)(F)F)cc2C(F)(F)F)=C1O` (stereo not drawn) [Example 87, 2-(2-(2,4-bis(trifluoromethyl)phenyl)cyclopropanecarbonyl)-4,6,6-triethyl-3,5-dihydroxycyclohexa-2,4-dienone]: the values for the MIC in experiment [1], in experiment [2] and in experiment [3] were 3.2 µg/mL (≈ 6.52 µM), 5.9 µg/mL (≈ 12 µM) and greater than 40 µg/mL, respectively.

As to `CC1=C(O)C(C)(C)C(=O)C(C(=O)C2CC2c2ccc(C(F)(F)F)cc2)=C1O` (stereo not drawn) [Example 88, 3,5-dihydroxy-4,6,6-trimethyl-2-(2-(4-(trifluoromethyl)phenyl)cyclopropanecarbonyl)cyclohexa-2,4-dienone], the MIC in experiment [1], in experiment [2] and in experiment [3] was greater than 40 µg/mL each time.

On to `CCC1=C(O)C(CC)(CC)C(=O)C(C(=O)C2CC2c2ccc(Cl)cc2)=C1O` (stereo not drawn) [Example 89, 2-(2-(4-chlorophenyl)cyclopropanecarbonyl)-4,6,6-triethyl-3,5-dihydroxycyclohexa-2,4-dienone], for which the “MIC S. aureus 12600” value in experiment [2] (setting [5]) was 7.9 µg/mL (≈ 20.3 µM). In addition, in experiment [4], the “MIC E. coli D21f2tolC” value was 3.0 µg/mL (≈ 7.71 µM). Moreover, in experiment [3] (setting [5]), the “MIC E. faecalis H37Rv” value is greater than 40 µg/mL.

Consider `CCC1=C(O)C(CC)(CC)C(=O)C(C(=O)C2CC2c2ccc(C(F)(F)F)cc2)=C1O` (stereo not drawn) [Example 90, 4,6,6-triethyl-3,5-dihydroxy-2-(2-(4-(trifluoromethyl)phenyl)cyclopropanecarbonyl)cyclohexa-2,4-dienone], for which the MIC was 1.1 µg/mL (≈ 2.6 µM) in experiment [1], 1.4 µg/mL (≈ 3.31 µM) in experiment [2] and 2.3 µg/mL (≈ 5.44 µM) in experiment [3].

In the case of `CCCC1=C(O)C(CCC)(CCC)C(=O)C(C(=O)C2CC2c2ccc(C(F)(F)F)cc2)=C1O` (stereo not drawn) [Example 91, 3,5-dihydroxy-4,6,6-tripropyl-2-(2-(4-(trifluoromethyl)phenyl)cyclopropanecarbonyl)cyclohexa-2,4-dienone], the MIC is 0.66 µg/mL (≈ 1.42 µM) in experiment [1], 0.36 µg/mL (≈ 0.775 µM) in experiment [2] and 0.41 µg/mL (≈ 0.883 µM) in experiment [3].

Consider `CC1=C(O)C(C)(C)C(=O)C(C(=O)C2CC2c2ccc(Oc3ccc(F)cc3)cc2)=C1O` (stereo not drawn) [Example 92, 2-(2-(4-(4-fluorophenoxy)phenyl)cyclopropanecarbonyl)-3,5-dihydroxy-4,6,6-trimethylcyclohexa-2,4-dienone], for which the MIC was 5.5 µg/mL (≈ 13 µM) in experiment [1], 21 µg/mL (≈ 49.7 µM) in experiment [2] and greater than 40 µg/mL in experiment [3].
